# Reference: BindingDB's records for doi:10.1016/j.bmcl.2011.07.110 (Second Military Medical University, 2011)
# Target: Acrosin (Homo sapiens, UniProt P10323)
# Assay: Inhibition of human acrosin using N-alpha-benzoyl-DL-arginine para-nitroanilide-HCl as substrate after 3 hrs by spectrophotometry
# Chain of Acrosin (P10323 20-42 limits assumed): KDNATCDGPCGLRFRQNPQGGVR
# Chain of Acrosin (P10323 43-343 limits assumed): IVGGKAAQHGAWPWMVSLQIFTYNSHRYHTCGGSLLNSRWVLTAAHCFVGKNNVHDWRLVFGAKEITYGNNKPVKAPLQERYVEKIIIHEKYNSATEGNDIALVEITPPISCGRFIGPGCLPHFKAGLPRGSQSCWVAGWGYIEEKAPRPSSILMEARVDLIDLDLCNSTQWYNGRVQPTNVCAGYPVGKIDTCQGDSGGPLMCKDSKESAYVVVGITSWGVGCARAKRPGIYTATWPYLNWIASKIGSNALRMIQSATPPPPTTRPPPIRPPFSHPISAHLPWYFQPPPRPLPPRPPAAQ
row,SMILES,IC50 [mM]
1,CCOC(=O)c1cc(-c2ccc(NC(=O)C(CC)c3ccccc3)cc2)n[nH]1 (configuration not stated),3.3
2,CCOC(=O)c1cc(-c2ccc(NC(=O)c3ccc(OC)cc3)cc2)n[nH]1,0.8
3,CCOC(=O)c1cc(-c2ccc(NC(=O)c3ccc(F)cc3)cc2)[nH]n1,2.4
4,CCOC(=O)c1cc(-c2ccc(NC(=O)c3ccccc3Cl)cc2)n[nH]1,0.11
5,CCOC(=O)c1cc(-c2ccc(NC(=O)C(F)(F)F)cc2)[nH]n1,7.9
6,CCOC(=O)c1cc(-c2ccc(NC(=O)c3c(F)cccc3F)cc2)[nH]n1,3.98
7,CCOC(=O)c1cc(-c2ccc(NC(=O)c3ccccc3Br)cc2)n[nH]1,2.4
8,CCOC(=O)c1cc(-c2ccc(NC(=O)c3c(Cl)cccc3Cl)cc2)n[nH]1,4.8
9,CCCC(=O)Nc1ccc(-c2cc(C(=O)OCC)[nH]n2)cc1,17
10,CCOC(=O)c1cc(-c2ccc(NC(=O)c3ccc(C)cc3)cc2)n[nH]1,34.6
11,CCOC(=O)c1cc(-c2ccc(NC(=O)c3ccccc3)cc2)n[nH]1,8
12,CCOC(=O)c1cc(-c2ccc(NS(=O)(=O)c3ccc(C)cc3)cc2)[nH]n1,0.032
13,CCOC(=O)c1cc(-c2ccc(NC(=O)CCC(=O)O)cc2)[nH]n1,9.25
14,CCOC(=O)c1cc(-c2ccc(NC(=O)CC)cc2)[nH]n1,14
15,CCOC(=O)c1cc(-c2ccc(NC(=O)CCCC(=O)O)cc2)n[nH]1,17.4
16,CCOC(=O)c1cc(-c2ccc(NC(=O)CCCl)cc2)[nH]n1,5.76
17,CCOC(=O)c1cc(-c2ccc(NC(C)=O)cc2)[nH]n1,23
18,CCOC(=O)c1cc(-c2ccc(NC(=O)c3ccc(Cl)cc3)cc2)n[nH]1,3.31
19,CCCCC(=O)Nc1ccc(-c2cc(C(=O)OCC)n[nH]2)cc1,72
20,CCOC(=O)c1cc(-c2ccc(NC(=O)c3ccc(CCl)cc3)cc2)n[nH]1,3.31
21,CCOC(=O)c1cc(-c2ccc(NC(=O)Cc3ccccc3)cc2)[nH]n1,0.47
22,CCOC(=O)c1cc(-c2ccc(NC(=O)c3ccc(Cl)cc3Cl)cc2)[nH]n1,0.44
